Results reported in patent US20150005281A1, “PYRIMIDINE-2,4-DIAMINE DERIVATIVES AS KINASE INHIBITORS” (Cellzome Limited, priority 2011, published 2015).

Legend:
Type in all cases: binding
JAK3 = biological target: T1, JAK3 (Homo sapiens, UniProt P52333); experiment: Kinobeads assay with immunodetection, JAK3; details: Kinobeads assay, mixed Molt4/Ramos lysate; read-out: Inhibition values (IC50) JAK3
T1 construct: endogenous in cells; host or cells: Molt4 (ATCC CRL-1582) and Ramos (ATCC CRL-1596) cells; mixed lysate 1:2
T1 sequence (P52333 1-1124): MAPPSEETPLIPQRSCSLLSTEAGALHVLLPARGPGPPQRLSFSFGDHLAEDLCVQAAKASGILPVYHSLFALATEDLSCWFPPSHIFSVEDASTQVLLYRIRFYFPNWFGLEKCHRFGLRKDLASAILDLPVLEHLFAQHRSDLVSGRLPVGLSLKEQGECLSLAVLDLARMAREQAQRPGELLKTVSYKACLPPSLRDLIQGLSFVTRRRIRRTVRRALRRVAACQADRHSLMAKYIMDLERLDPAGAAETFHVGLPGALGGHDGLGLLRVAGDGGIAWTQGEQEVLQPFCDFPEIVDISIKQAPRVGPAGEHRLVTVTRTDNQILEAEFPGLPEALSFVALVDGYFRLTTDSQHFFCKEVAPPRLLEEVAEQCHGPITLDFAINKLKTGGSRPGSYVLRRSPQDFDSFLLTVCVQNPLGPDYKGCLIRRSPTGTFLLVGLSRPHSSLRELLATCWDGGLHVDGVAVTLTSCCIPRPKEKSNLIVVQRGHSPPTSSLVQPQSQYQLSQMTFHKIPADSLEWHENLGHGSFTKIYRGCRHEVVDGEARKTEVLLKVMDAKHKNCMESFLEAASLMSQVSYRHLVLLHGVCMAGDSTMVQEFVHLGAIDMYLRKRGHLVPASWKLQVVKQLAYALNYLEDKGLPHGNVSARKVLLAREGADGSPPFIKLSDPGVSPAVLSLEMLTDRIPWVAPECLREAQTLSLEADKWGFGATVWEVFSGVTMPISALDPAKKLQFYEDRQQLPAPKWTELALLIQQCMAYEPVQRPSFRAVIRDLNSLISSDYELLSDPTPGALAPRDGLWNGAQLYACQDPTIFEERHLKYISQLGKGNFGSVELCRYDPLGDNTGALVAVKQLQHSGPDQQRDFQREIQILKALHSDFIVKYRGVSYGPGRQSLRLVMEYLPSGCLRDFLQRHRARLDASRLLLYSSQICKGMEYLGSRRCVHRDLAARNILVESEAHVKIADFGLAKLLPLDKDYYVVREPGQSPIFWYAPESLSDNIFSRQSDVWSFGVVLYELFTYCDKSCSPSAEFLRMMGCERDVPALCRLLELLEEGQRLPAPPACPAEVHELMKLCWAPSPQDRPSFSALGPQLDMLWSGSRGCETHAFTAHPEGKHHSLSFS
Method in brief: (§1)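 Mixed Molt4/Ramos lysate (1:2, 10 mg/mL protein) incubated 3 h in the cold with compound (1:3 series from 5 mM DMSO stock) and immobilized aminopyrido-pyrimidine Kinobeads. Bead-bound JAK1, JAK2, JAK3 and TYK2 eluted and quantified by antibody dot blot (Odyssey), IC50 from dose-response curves.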

JAK1 = biological target: T2, JAK1 (Homo sapiens, UniProt P23458); experiment: Kinobeads assay with immunodetection, JAK1; details: for IC50: Kinobeads assay, mixed Molt4/Ramos lysate, read-out: Inhibition values (IC50) JAK1
T2 construct: endogenous in cells; host or cells: Molt4 (ATCC CRL-1582) and Ramos (ATCC CRL-1596) cells; mixed lysate 1:2
Method in brief: as §1

TYK2 = biological target: T3, TYK2 (Homo sapiens, UniProt P29597); experiment: Kinobeads assay with immunodetection, TYK2; details: for IC50: Kinobeads assay, mixed Molt4/Ramos lysate, read-out: Inhibition values (IC50) Tyk2
T3 construct: endogenous in cells; host or cells: Molt4 (ATCC CRL-1582) and Ramos (ATCC CRL-1596) cells; mixed lysate 1:2
Method in brief: as §1

JAK2 = biological target: T4, JAK2 (Homo sapiens, UniProt O60674); experiment: Kinobeads assay with immunodetection, JAK2; details: mixed Molt4/Ramos lysate, read-out: Inhibition values (IC50) JAK2
T4 construct: endogenous in cells; host or cells: Molt4 (ATCC CRL-1582) and Ramos (ATCC CRL-1596) cells; mixed lysate 1:2
Method in brief: as §1

T3 sequence (P29597 whole entry): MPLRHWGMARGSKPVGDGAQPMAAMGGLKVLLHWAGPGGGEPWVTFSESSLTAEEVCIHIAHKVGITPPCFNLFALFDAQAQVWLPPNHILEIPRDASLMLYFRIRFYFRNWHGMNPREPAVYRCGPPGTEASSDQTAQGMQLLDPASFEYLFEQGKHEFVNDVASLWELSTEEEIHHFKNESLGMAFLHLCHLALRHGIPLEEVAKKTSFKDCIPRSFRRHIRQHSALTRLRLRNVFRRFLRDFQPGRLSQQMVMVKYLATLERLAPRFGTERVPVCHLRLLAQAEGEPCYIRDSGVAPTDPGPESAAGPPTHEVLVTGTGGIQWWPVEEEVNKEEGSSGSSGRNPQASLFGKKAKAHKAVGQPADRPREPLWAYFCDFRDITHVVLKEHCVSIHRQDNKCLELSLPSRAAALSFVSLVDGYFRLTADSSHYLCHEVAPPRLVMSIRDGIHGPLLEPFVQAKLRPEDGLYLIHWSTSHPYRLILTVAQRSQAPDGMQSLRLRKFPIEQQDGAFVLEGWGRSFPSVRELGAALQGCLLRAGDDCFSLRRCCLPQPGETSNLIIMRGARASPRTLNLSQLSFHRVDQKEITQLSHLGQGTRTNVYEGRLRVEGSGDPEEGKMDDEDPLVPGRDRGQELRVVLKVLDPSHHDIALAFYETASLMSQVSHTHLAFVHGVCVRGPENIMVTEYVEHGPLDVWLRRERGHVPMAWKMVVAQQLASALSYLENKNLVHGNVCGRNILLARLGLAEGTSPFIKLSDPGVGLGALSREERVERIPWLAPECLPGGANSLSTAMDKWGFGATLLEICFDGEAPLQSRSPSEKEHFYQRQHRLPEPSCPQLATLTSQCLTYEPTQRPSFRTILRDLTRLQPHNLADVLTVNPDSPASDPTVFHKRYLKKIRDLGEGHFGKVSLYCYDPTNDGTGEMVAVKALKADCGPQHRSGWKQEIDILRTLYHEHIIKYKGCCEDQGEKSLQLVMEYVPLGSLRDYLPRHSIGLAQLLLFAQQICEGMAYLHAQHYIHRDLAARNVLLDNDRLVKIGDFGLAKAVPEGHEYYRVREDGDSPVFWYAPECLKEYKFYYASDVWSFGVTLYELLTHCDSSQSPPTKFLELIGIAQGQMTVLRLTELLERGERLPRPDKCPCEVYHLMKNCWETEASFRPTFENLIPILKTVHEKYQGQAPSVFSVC
T2 sequence (P23458 whole entry): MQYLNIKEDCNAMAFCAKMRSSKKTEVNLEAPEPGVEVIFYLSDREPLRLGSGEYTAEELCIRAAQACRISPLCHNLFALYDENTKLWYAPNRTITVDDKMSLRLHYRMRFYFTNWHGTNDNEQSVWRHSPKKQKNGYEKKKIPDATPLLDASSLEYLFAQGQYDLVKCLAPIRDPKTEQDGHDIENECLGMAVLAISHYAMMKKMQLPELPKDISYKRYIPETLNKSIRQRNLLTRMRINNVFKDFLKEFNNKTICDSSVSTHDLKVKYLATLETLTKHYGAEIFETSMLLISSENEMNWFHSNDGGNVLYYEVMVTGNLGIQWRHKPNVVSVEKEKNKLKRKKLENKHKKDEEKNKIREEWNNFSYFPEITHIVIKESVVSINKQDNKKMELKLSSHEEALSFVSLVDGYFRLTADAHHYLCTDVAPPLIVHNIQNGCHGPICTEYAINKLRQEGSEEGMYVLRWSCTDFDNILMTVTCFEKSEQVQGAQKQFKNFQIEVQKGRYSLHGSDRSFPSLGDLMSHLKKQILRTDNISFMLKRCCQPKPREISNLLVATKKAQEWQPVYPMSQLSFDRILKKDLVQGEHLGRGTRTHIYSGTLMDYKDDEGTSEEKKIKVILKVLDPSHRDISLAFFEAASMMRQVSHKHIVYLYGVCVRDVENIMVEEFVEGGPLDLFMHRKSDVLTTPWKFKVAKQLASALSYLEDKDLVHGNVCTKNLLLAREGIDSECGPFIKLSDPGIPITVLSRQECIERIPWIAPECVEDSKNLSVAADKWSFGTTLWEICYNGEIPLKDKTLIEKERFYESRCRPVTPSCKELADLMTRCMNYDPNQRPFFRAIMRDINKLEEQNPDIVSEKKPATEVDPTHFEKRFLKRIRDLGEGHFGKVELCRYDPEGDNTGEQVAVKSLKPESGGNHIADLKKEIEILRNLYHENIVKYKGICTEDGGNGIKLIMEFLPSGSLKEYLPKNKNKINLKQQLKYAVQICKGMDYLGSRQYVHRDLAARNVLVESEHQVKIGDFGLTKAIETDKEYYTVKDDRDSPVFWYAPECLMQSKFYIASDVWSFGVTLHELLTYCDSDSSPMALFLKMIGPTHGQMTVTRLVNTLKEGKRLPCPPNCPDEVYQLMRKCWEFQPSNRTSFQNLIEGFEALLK
T4 sequence (O60674 whole entry): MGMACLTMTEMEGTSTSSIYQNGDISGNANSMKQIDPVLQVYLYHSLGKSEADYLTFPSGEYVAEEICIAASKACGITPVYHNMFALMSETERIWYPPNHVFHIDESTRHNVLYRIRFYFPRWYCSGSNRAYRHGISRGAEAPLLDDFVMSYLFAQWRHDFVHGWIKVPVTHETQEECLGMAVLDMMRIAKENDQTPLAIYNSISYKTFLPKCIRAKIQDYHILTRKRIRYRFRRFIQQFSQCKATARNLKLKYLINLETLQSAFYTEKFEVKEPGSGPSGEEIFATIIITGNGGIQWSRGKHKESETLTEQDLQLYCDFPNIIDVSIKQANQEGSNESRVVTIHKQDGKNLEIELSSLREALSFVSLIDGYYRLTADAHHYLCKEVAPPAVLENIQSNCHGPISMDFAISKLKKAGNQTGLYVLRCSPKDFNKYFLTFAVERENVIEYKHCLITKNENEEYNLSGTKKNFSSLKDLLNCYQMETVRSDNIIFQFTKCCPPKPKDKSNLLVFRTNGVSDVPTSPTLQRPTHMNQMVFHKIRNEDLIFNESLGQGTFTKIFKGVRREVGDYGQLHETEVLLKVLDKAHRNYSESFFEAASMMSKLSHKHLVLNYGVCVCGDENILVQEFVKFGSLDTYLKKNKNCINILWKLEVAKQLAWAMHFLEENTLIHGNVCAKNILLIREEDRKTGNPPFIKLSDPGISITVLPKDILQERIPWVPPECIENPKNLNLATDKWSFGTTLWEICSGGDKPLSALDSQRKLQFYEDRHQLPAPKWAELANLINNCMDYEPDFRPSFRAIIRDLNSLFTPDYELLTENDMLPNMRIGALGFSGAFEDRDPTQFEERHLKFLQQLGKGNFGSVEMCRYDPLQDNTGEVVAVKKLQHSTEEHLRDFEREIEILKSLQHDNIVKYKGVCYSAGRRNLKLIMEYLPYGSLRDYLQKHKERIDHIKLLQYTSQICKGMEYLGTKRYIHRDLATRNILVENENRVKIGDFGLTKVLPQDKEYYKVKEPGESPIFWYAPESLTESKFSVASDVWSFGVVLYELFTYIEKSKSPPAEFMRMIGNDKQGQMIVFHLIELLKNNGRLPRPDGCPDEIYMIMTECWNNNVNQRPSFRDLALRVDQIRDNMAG

Structure (SMILES) | IC50 (JAK3) | IC50 (JAK1) | IC50 (TYK2) | Selectivity ratio over JAK2, Tyk2 (TYK2) | IC50 (JAK2) | Selectivity ratio over JAK2, JAK1 (JAK1)
Cn1cc(Nc2ncc(Cl)c(NC[C@H]3CCCN3CCC#N)n2)cn1 [Example 49, (R)-3-(2-((5-chloro-2-(1-methyl-1H-pyrazol-4-ylamino)pyrimidin-4-ylamino)methyl)pyrrolidin-1-yl)propanenitrile] | < 0.1 µM | < 0.1 µM | < 0.1 µM | Tyk2 = 42 | 0.1 to 1 µM | 
Cn1cc(Nc2ncc(Cl)c(NC[C@H]3CCCN3CCS(C)(=O)=O)n2)cn1 [Example 50, (R)-5-chloro-N^2-(1-methyl-1H-pyrazol-4-yl)-N^4-((1-(2-(methylsulfonyl)ethyl)pyrrolidin-2-yl)methyl)pyrimidine-2,4-diamine] | < 0.1 µM | < 0.1 µM | < 0.1 µM | Tyk2 = 25 | 0.1 to 1 µM | 
CCS(=O)(=O)N1CCC[C@@H]1CNc1nc(Nc2cnn(C)c2)ncc1Cl [Example 51, (R)-5-chloro-N^4-((1-(ethylsulfonyl)pyrrolidin-2-yl)methyl)-N^2-(1-methyl-1H-pyrazol-4-yl)pyrimidine-2,4-diamine] | < 0.1 µM | < 0.1 µM | < 0.1 µM | Tyk2 = 14 | 0.1 to 1 µM | 
Cn1cc(Nc2ncc(Cl)c(NC[C@H]3CCCN3C(=O)CC#N)n2)cn1 [Example 52, (R)-3-(2-((5-chloro-2-(1-methyl-1H-pyrazol-4-ylamino)pyrimidin-4-ylamino)methyl)pyrrolidin-1-yl)-3-oxopropanenitrile] | < 0.1 µM | < 0.1 µM | < 0.1 µM | Tyk2 = 30 | 0.1 to 1 µM | 
CN(C)CC(=O)N1CCC[C@@H]1CNc1nc(Nc2cnn(C)c2)ncc1Cl [Example 53, (R)-1-(2-((5-chloro-2-(1-methyl-1H-pyrazol-4-ylamino)pyrimidin-4-ylamino)methyl)pyrrolidin-1-yl)-2-(dimethylamino)ethanone] | 0.1 to 1 µM | < 0.1 µM | 0.1 to 1 µM |  | 1 to 10 µM | JAK1 = 93
Cn1cc(Nc2ncc(Cl)c(NC[C@H]3CCCN3C(=O)CO)n2)cn1 [Example 54, (R)-1-(2-((5-chloro-2-(1-methyl-1H-pyrazol-4-ylamino)pyrimidin-4-ylamino)methyl)pyrrolidin-1-yl)-2-hydroxyethanone] | 0.1 to 1 µM | < 0.1 µM | < 0.1 µM | Tyk2 = 12 | 0.1 to 1 µM | 
Cn1cc(Nc2ncc(Cl)c(NC[C@H]3CCN(CCS(C)(=O)=O)C3)n2)cn1 [Example 55, (R)-5-chloro-N^2-(1-methyl-1H-pyrazol-4-yl)-N^4-((1-(2-(methylsulfonyl)ethyl)pyrrolidin-3-yl)methyl)pyrimidine-2,4-diamine] | < 0.1 µM | < 0.1 µM | 0.1 to 1 µM |  | 0.1 to 1 µM | JAK1 = 11
Cn1cc(Nc2ncc(Cl)c(NC[C@H]3CCN(CCO)C3)n2)cn1 [Example 56, (R)-2-(3-((5-chloro-2-(1-methyl-1H-pyrazol-4-ylamino)pyrimidin-4-ylamino)methyl)pyrrolidin-1-yl)ethanol] | 1 to 10 µM | 0.1 to 1 µM | 1 to 10 µM |  | 1 to 10 µM | JAK1 = 46
Cn1cc(Nc2ncc(Cl)c(NC[C@H]3CCN(CCC#N)C3)n2)cn1 [Example 57, (R)-3-(3-((5-chloro-2-(1-methyl-1H-pyrazol-4-ylamino)pyrimidin-4-ylamino)methyl)pyrrolidin-1-yl)propanenitrile] | < 0.1 µM | 0.1 to 1 µM | 0.1 to 1 µM |  | 1 to 10 µM | JAK1 = 15
Cn1cc(Nc2ncc(Cl)c(NC[C@H]3CCN(C(=O)CC#N)C3)n2)cn1 [Example 58, (R)-3-(3-((5-chloro-2-(1-methyl-1H-pyrazol-4-ylamino)pyrimidin-4-ylamino)methyl)pyrrolidin-1-yl)-3-oxopropanenitrile] | < 0.1 µM | < 0.1 µM | < 0.1 µM |  | 0.1 to 1 µM | JAK1 = 15
CN(C)CC(=O)N1CC[C@H](CNc2nc(Nc3cnn(C)c3)ncc2Cl)C1 [Example 59, (R)-1-(3-((5-chloro-2-(1-methyl-1H-pyrazol-4-ylamino)pyrimidin-4-ylamino)methyl)pyrrolidin-1-yl)-2-(dimethylamino)ethanone] | 1 to 10 µM | 0.1 to 1 µM | 0.1 to 1 µM |  | 1 to 10 µM | JAK1 = 33
CCN1CCC[C@@H]1CNc1nc(Nc2cnn(C)c2)ncc1Cl [Example 60, (R)-5-chloro-N^4-((1-ethylpyrrolidin-2-yl)methyl)-N^2-(1-methyl-1H-pyrazol-4-yl)pyrimidine-2,4-diamine] | 0.1 to 1 µM | 0.1 to 1 µM | 0.1 to 1 µM |  | > 10 µM | JAK1 = 45
CCN1CCC[C@H]1CNc1nc(Nc2cnn(C)c2)ncc1Cl [Example 61, (S)-5-chloro-N4-((1-ethylpyrrolidin-2-yl)methyl)-N2-(1-methyl-1H-pyrazol-4-yl)pyrimidine-2,4-diamine] | 0.1 to 1 µM | 0.1 to 1 µM | > 10 µM |  | > 10 µM | JAK1 = 49
CN1CCCC1CNc1nc(Nc2cnn(C)c2)ncc1Cl (stereo not shown) [Example 62, 5-chloro-N^2-(1-methyl-1H-pyrazol-4-yl)-N^4-((1-methylpyrrolidin-2-yl)methyl)pyrimidine-2,4-diamine] | 0.1 to 1 µM | 0.1 to 1 µM | > 10 µM |  | > 10 µM | JAK1 = 23
CNC(=O)Cn1cc(Nc2ncc(Cl)c(NC[C@H]3CCCN3)n2)cn1 [Example 63, (R)-2-(4-(5-chloro-4-(pyrrolidin-2-ylmethylamino)pyrimidin-2-ylamino)-1H-pyrazol-1-yl)-N-methylacetamide] | 1 to 10 µM | 1 to 10 µM | 1 to 10 µM |  | > 10 µM | 
CN(C)C(=O)Cn1cc(Nc2ncc(Cl)c(NC[C@H]3CCCN3)n2)cn1 [Example 64, (R)-2-(4-(5-chloro-4-(pyrrolidin-2-ylmethylamino)pyrimidin-2-ylamino)-1H-pyrazol-1-yl)-N,N-dimethylacetamide] | 1 to 10 µM | 0.1 to 1 µM | 1 to 10 µM |  | > 10 µM | 
CNC(=O)Cn1cc(Nc2ncc(Cl)c(NC[C@@H]3CCCN3)n2)cn1 [Example 65, (S)-2-(4-(5-chloro-4-(pyrrolidin-2-ylmethylamino)pyrimidin-2-ylamino)-1H-pyrazol-1-yl)-N-methylacetamide] | 1 to 10 µM | 1 to 10 µM | 1 to 10 µM |  | > 10 µM | 
CN(C)C(=O)Cn1cc(Nc2ncc(Cl)c(NC[C@@H]3CCCN3)n2)cn1 [Example 66, (S)-2-(4-(5-chloro-4-(pyrrolidin-2-ylmethylamino)pyrimidin-2-ylamino)-1H-pyrazol-1-yl)-N,N-dimethylacetamide] | 1 to 10 µM | 1 to 10 µM | 0.1 to 1 µM |  | > 10 µM | 
CNC(=O)Cn1cc(Nc2ncc(Cl)c(NC[C@H]3CCCN3S(C)(=O)=O)n2)cn1 [Example 67, (R)-2-(4-(5-chloro-4-((1-(methylsulfonyl)pyrrolidin-2-yl)methylamino)pyrimidin-2-ylamino)-1H-pyrazol-1-yl)-N-methylacetamide] | < 0.1 µM | < 0.1 µM | < 0.1 µM | Tyk2 = 13 | < 0.1 µM | 
